Measurements published in ChEMBL document CHEMBL1781918, “Quinazolin-4-piperidin-4-methyl sulfamide PC-1 inhibitors: alleviating hERG interactions through structure based design” (Bioorg Med Chem Lett, 2009).

Assays:
[1] = molecular target: Voltage-gated inwardly rectifying potassium channel KCNH2 (Homo sapiens, UniProt Q12809); assay: Displacement of [3H]-dofetilid from human ERG expressed in HEK293 cells; assay type: cell-based
[2] = molecular target: T1, Ectonucleotide pyrophosphatase/phosphodiesterase family member 1 (Homo sapiens) (UniProt P22413); assay: Inhibition of PC1 by in vitro Kinase-Glo assay
T1 sequence (whole entry): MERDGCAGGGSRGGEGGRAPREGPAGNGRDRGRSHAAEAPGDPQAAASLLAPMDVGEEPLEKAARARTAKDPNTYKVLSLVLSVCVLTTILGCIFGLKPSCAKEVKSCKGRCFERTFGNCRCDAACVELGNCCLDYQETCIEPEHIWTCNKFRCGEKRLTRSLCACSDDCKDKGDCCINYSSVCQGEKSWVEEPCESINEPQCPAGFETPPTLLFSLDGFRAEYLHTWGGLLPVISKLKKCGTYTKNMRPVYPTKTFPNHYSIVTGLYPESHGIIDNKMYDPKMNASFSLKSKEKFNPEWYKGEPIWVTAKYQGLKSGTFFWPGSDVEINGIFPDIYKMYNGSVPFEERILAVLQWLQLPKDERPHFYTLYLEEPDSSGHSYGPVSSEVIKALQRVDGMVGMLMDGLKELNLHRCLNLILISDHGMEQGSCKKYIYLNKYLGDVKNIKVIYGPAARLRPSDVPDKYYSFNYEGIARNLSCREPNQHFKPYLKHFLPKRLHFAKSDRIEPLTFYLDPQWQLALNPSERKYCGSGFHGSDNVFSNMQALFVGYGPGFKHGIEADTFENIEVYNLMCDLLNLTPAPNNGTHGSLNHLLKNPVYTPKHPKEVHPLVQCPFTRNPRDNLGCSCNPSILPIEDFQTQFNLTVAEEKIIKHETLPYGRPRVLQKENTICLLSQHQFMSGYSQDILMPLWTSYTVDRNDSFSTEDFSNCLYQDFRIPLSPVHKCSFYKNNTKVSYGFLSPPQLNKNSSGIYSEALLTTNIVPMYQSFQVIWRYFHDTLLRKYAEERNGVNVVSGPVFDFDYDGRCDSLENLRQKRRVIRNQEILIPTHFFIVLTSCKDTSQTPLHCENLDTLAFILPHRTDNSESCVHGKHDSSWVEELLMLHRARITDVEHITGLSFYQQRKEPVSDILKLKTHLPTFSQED

[3] = Selectivity for PC1 to human ERG channel

Voltage-gated inwardly rectifying potassium channel KCNH2, sequence (Q12809 whole entry): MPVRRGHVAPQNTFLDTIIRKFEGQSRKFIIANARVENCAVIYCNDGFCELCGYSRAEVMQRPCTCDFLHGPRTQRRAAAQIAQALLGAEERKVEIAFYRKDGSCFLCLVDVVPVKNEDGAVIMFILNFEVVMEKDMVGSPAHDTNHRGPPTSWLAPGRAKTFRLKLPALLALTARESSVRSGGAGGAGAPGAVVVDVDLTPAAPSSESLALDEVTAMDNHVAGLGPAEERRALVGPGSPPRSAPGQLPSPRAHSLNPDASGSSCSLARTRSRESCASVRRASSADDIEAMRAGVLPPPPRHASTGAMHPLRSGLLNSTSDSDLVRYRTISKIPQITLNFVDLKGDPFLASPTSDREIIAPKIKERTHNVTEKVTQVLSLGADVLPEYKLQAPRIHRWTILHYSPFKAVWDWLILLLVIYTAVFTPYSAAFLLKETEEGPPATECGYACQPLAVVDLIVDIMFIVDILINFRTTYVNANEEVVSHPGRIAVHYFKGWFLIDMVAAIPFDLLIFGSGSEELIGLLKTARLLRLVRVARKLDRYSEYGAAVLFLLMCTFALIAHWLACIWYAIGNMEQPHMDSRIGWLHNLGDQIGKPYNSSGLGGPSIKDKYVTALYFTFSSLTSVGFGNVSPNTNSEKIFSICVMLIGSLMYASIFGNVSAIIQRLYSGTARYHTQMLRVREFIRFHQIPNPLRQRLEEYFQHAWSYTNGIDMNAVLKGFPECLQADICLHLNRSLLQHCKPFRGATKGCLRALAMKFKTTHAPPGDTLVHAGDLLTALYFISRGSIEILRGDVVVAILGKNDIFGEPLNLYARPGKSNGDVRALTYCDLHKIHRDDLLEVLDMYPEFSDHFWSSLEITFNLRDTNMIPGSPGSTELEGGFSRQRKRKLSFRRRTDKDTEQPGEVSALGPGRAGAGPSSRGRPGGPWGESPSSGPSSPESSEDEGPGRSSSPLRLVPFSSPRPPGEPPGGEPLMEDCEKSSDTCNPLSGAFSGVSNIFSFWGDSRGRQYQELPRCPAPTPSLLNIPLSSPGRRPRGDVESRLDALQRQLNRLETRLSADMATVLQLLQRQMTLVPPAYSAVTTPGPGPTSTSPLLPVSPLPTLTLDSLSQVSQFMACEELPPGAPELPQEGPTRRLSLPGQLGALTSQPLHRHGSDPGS

INH [2] [µM] | Ratio [3] | Structure (SMILES) | INH [1] [µM]
> 10 |  | Cc1nccn1-c1cc(N2CCC(CNS(N)(=O)=O)CC2)ncn1 | > 10
> 10 |  | NS(=O)(=O)NCCC1CCN(c2ncnc3cc(Cl)ccc23)CC1 | 3.4
2.45 |  | Cc1nccn1-c1nccc(N2CCC(CCNS(N)(=O)=O)CC2)n1 | 6.867
0.063 | 52 | COc1cc2nc(/C=C/c3cccnc3)nc(N3CCC(CNS(N)(=O)=O)CC3)c2cc1OC | 3.296
0.166 | > 60 | COc1ccc2c(N3CCC(CNS(N)(=O)=O)CC3)ncnc2c1 | > 10
0.0353 | 8 | COc1cc2nc(/C=C/c3cccnc3)nc(N3CCC(CCNS(N)(=O)=O)CC3)c2cc1OC | 0.276
0.061 | > 160 | COc1cc2ncnc(N3CCC(CNS(N)(=O)=O)CC3)c2cc1OC | > 10
0.187 | 1 | COc1ccc2c(N3CCC(CCNS(N)(=O)=O)CC3)ncnc2c1 | 0.1202
0.6 | > 16 | Cc1nccn1-c1cc(N2CCC(CCNS(N)(=O)=O)CC2)ncn1 | > 10
> 10 |  | COc1cc2ncnc(N3CCC(NS(N)(=O)=O)CC3)c2cc1OC | > 10
5.98 |  | NS(=O)(=O)NCCC1CCN(c2ncnc3ccc(Cl)cc23)CC1 | 
0.0362 | 17 | COc1cc2ncnc(N3CCC(CCNS(N)(=O)=O)CC3)c2cc1OC | 0.601
0.214 |  | CCc1nc(N2CCC(CCNS(N)(=O)=O)CC2)c2cc(OC)c(OC)cc2n1 | 
